Laboratory results taken from patent US8889731B2, “Compounds, compositions and methods for repelling blood-feeding arthropods and deterring their landing and feeding” (Contech Enterprises Inc., priority 2007, dated 2014).

How the values were obtained:
Aedes aegypti = experiment: Arm-in-cage repellent/deterrent bioassay on exposed human forearm (modified WHO protocol), Aedes aegypti; assay type: in vivo
Method: (§1) Candidate repellents and deterrents were bioassayed according to a modified protocol from the World Health Organization (1996). At least 1 hour prior to each bioassay, 75 host-seeking non blood-fed, nulliparous, 5- to 8-day-old female Aedes aegypti, Anopheles gambiae or Culex quinquefasciatus were placed into a wood-framed cage (26.5 cm on each side and 42.5 cm high) with a wooden floor, screened mesh sides and top, and a clear acrylic front fitted with a cotton stockinette sleeve (10 cm diameter). The test subject's arm was covered with an elbow-length polyethylene glove with an excised patch (16.6 cm long, 6 cm wide) to expose the ventral forearm of the test subject. Candidate deterrents were formulated in mineral (paraffin) oil and applied to the exposed forearm 5 min prior to inserting the arm into the cage. The inserted arm remained in the cage for 3 min every 30 min. Prior to each 3-min bioassay period, the hand of the untreated arm was inserted into the cage to ascertain that it received 10 bites within 30 sec as an indication of “biting pressure”.
(§2) The bioassay was terminated when the treated arm received ≧2 bites in one 3-min bioassay period or one bite in each of two consecutive bioassay periods. The time elapsed from experiment initiation to first bite was recorded as deterrent failure or complete protection time.
(§3) N,N-diethyl-m-toluamide formulated in ethanol at a corresponding dose served as a positive control, and mineral oil by itself served as a negative control. On each day, only one candidate compound was tested, ensuring that any residual material in the chamber had disappeared before the next bioassay.
To determine the repellence and deterrence of 8-allylsulfanyloctan-1-ol against Aedes aegypti, a 5%, 10% or 25% formulation of 8-allylsulfanyloctan-1-ol in mineral oil was applied in Experiments 1-3 at a dose of 1.5 mg (total composition) per cm^2 to the skin of the test person, and was bioassayed according to the protocol described under EXAMPLE 2. In Experiment 4, mineral oil by itself served as a negative control and was bioassayed at the same dose (1.5 mg per cm^2) as in Experiments 1-3. Each of Experiments 1-4 was replicated four times.
To compare the repellence and deterrence against Aedes aegypti caused by 8-allylsulfanyloctan-1-ol as a single active ingredient and by 8-allylsulfanyloctan-1-ol in combination with vanillin as a second active ingredient, we tested a 6.7% emulsion of vanillin (Experiment 14), a 6.7% emulsion of 8-allylsulfanyloctan-1-ol (Experiment 15), and a 13.4% emulsion of 8-allylsulfanyloctan-1-ol plus vanillin (1:1 ratio) (Experiment 16). 8-Allylsulfanyloctan-1-ol and vanillin were formulated in Emulsion No. 1 (see EXAMPLE 9). In each of Experiments […], test stimuli were applied at a dose of 1.5 mg per cm^2 to the skin of the test person, and were bioassayed according to the protocol described under EXAMPLE 2. In Experiment 17, Emulsion No. 1 served as a positive control and was tested at the same dose (1.5 mg per cm^2) as in Experiments 14-16.
To be able to compare the repellence and deterrence caused by N,N-diethyl-m-toluamide and by 8-allylsulfanyloctan-1-ol plus vanillin in Emulsion No. 1 (EXAMPLE 9), Experiment 26 tested a 6.7% formulation of N,N-diethyl-m-toluamide in ethanol (the best formulant for DEET) for protection from bites by Aedes egypti. In each replicate, a dose of 1.5 mg per […] was applied to the skin of the test person and bioassayed according to the protocol described under EXAMPLE 2.
To be able to further compare the deterrence caused by N,N-diethyl-m-toluamide with that caused by 8-allylsulfanyloctan-1-ol plus vanillin, Experiment 27 tested a 10.4% formulation of N,N-diethyl-m-toluamide in ethanol, and Experiment 28 tested 8-allylsulfanyloctan-1-ol (10.4%) plus vanillin (7.9%) in Emulsion No. 2 (EXAMPLE 10). […]

mosquitoes = experiment: General bioassay procedure with garlic oil, its components and fractions (mosquito species not given); assay type: in vivo
Method: as §1, §2, §3
Garlic oil (Allium sativum—Mexico; Clearwater Soap Works, Box 1775 RR1, Clearwater, BC V0E 1N0, Canada) was formulated in mineral oil and tested using the general bioassay procedure described in EXAMPLE 2 at a dose of 0.1 mg per cm^2 of arm surface. It expressed repellence and deterrence for ˜30 min.
Some of the 10 components in FIG. 1 were bioassayed singly (see general bioassay procedure) and in various combinations, all of which were as deterrent to mosquitoes as garlic oil.
To determine the most deterrent component(s) in garlic oil, it was fractionated by HPLC into four fractions, each containing one or more of the EAD-active components (compounds 1-10 in FIG. 1 and 11-14 in TABLE 2). Each fraction was then bioassayed and shown to be similarly effective in repelling and deterring mosquitoes.
Components with high molecular weight (>250 daltons) are advantageous in that they: 1) dissipate slowly from treated surfaces; 2) provide long-lasting protection against mosquitoes and 3) convey little, if any, offensive smell. The relative abundance of such components was enhanced by treating garlic oil under vacuum, thus stripping away lower-boiling components. In GC-EAD analyses of the high-boiling residue, four components elicited responses from mosquito antennae.

SMILES: C=CCSCCCCCCCCO [Compound 24, 8-allylsulfanyloctan-1-ol]
- protection from bites, average duration (Aedes aegypti; 5% formulation in mineral oil, 1.5 mg per cm^2, Experiment 1): 52 min
- protection from bites, average duration (Aedes aegypti; 6.7% single active in Emulsion No. 1, 1.5 mg per cm^2, Experiments 14, 15): 77 min
- protection from bites, average duration (Aedes aegypti; 10% formulation in mineral oil, 1.5 mg per cm^2, Experiment 2): 157 min
- protection from bites, average duration (Aedes aegypti; 25% formulation in mineral oil, 1.5 mg per cm^2, Experiment 3): 305 min
- repellent and deterrent effect in bioassays (in words) (mosquitoes): very potent, even at a low dose
